Assay results reported in paper PMC8780828 (Viruses, 2021).
Read-outs that look alike come from different tables or passages of the source.

Legend:
CYP2B6 = CYP2B6 (Homo sapiens, UniProt P20813); test: in vitro; conditions: microsomes, pH 7.4
[1] = tested on: pseudovirus NL4-3ΔEnv-NanoLuc/SARS-CoV; test: microbe, parasite or virus in culture; format: cell-based; conditions: Severe acute respiratory syndrome coronavirus, A549-ACE2; n=3; read-out: IC50
[2] = tested on: SARS-CoV-2 (US_WA-1/2020); format: cell-based
in vitro = conditions: both, human, plasma
[3] = tested on: pseudovirus NL4-3ΔEnv-NanoLuc/SARS-CoV; test: microbe, parasite or virus in culture; format: cell-based; conditions: Severe acute respiratory syndrome coronavirus, HT-1080; n=3; read-out: IC50
CYP2C8 = CYP2C8 (Homo sapiens, UniProt P10632); test: in vitro; conditions: microsomes, pH 7.4
Sequence of CYP2C8 (P10632 whole entry): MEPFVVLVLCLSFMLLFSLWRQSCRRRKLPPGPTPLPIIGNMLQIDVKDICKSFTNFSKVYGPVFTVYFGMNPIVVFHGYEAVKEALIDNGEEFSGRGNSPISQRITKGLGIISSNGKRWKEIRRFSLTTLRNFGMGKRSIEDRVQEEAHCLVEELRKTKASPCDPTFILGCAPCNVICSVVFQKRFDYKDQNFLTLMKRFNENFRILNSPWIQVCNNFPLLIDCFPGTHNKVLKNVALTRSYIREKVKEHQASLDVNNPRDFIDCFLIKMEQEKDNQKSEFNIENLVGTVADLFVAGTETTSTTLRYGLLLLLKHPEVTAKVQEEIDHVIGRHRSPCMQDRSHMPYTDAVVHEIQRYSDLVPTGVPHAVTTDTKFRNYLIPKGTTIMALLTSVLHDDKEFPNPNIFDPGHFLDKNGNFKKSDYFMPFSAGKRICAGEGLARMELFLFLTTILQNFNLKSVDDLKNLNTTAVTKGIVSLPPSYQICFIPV

in vivo = conditions: female, Sprague Dawley, rat; for MRT inf: MRT0-inf_obs; for half-life: t1/2

Sequence of CYP2B6 (P20813 whole entry): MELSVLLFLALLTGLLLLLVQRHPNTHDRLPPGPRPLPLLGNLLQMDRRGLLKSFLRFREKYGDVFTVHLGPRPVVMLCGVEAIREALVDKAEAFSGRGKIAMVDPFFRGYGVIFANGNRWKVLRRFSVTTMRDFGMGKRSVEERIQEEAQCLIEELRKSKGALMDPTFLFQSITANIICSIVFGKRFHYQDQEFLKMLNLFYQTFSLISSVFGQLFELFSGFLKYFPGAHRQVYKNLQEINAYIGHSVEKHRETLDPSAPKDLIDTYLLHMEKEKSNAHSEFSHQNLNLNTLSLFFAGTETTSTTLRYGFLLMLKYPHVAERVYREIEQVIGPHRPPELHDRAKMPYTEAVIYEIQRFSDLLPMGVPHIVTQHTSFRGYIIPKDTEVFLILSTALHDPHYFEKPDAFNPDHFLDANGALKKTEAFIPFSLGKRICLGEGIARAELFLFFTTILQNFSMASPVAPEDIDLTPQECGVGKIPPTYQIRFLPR

Question: With `O=C(O)c1cc(-c2ccc(/C=C3\SC(=S)N(CCc4ccccc4)C3=O)o2)ccc1Cl` [NBCoV1] as the compound, how does the activity at 0.0137 µM (CYP2B6) read?
Answer: Its activity at 0.0137 µM is 97.5%.

Question: What about the activity at 0.0412 µM (CYP2B6) of the same compound?
Answer: Its activity at 0.0412 µM is 98.1%.

Question: What about the activity at 0.123 µM (CYP2B6) of the same compound?
Answer: Its activity at 0.123 µM is 90.4%.

Question: And the activity at 0.37 µM (CYP2B6)?
Answer: Its activity at 0.37 µM is 94.2%.

Question: And the activity at 1.11 µM (CYP2B6)?
Answer: The activity at 1.11 µM was 76.9%.

Question: And the activity at 3.33 µM (CYP2B6)?
Answer: The activity at 3.33 µM was 47%.

Question: And the activity at 10 µM (CYP2B6)?
Answer: The activity at 10 µM was 15.2%.

Question: And the IC50 [1]?
Answer: Its IC50 is 98 ± 4 nM.

Question: What about the IC100 [2] of the same compound?
Answer: Its IC100 is > 10 µM.

Question: And the fraction unbound (in vitro)?
Answer: The fraction unbound was < 0.005.

Question: And the fraction unbound (in vitro; % Bound, single replicates (R1, R2))?
Answer: Its fraction unbound is < 0.005.

Question: What about the IC50 [3] of the same compound?
Answer: The IC50 was 39 ± 8.2 nM.

Question: And the activity at 0.0137 µM (CYP2C8)?
Answer: Its activity at 0.0137 µM is 102%.

Question: What about the activity at 0.0412 µM (CYP2C8) of the same compound?
Answer: The activity at 0.0412 µM was 89%.

Question: What about the activity at 0.123 µM (CYP2C8) of the same compound?
Answer: The activity at 0.123 µM was 98.3%.

Question: What about the activity at 1.11 µM (CYP2C8) of the same compound?
Answer: Its activity at 1.11 µM is 76.9%.

Question: And the activity at 3.33 µM (CYP2C8)?
Answer: The activity at 3.33 µM was 25.3%.

Question: And the activity at 10 µM (CYP2C8)?
Answer: The activity at 10 µM was 3.87%.

Question: And the bioavailability (in vivo; F% (bioavailability))?
Answer: Its bioavailability is 20%.

Question: What about the C0 (in vivo; iv, 5 mg/kg) of the same compound?
Answer: The C0 was 7410 ng/mL.

Question: And the Tmax (in vivo; iv, 5 mg/kg)?
Answer: The Tmax was 0.25 h.

Question: And the Cmax (in vivo; iv, 5 mg/kg)?
Answer: Its Cmax is 7820 ng/mL.

Question: And the MRT inf (in vivo; iv, 5 mg/kg)?
Answer: The MRT inf was 4.02 h.

Question: What about the half-life (in vivo; iv, 5 mg/kg) of the same compound?
Answer: Its half-life is 3.57 h.

Question: What about the Tmax (in vivo; po, 10 mg/kg) of the same compound?
Answer: Its Tmax is 2 h.

Question: What about the Cmax (in vivo; po, 10 mg/kg) of the same compound?
Answer: Its Cmax is 1500 ng/mL.

Question: And the MRT inf (in vivo; po, 10 mg/kg)?
Answer: The MRT inf was 14 h.

Question: And the half-life (in vivo; po, 10 mg/kg)?
Answer: Its half-life is 11.3 h.
